In patent US20260138988A1, “Spiropyrrolidine Derived Antiviral Agents” (Enanta Pharmaceuticals, Inc., priority 2021, published 2026):
Like-named read-outs stand apart in the source and are kept apart here.

What was measured:
[1] = test system: 229E human corona virus (hCoV); test: 229E live virus assay (MRC-5 cells, CPE, ATPlite readout); assay type: cell-based, hCoV-229E; settings: Human coronavirus 229E, MRC5, 144 h, read-out: 229E EC50
[2] = target: SARS-CoV-2 3CL-protease (Severe acute respiratory syndrome coronavirus 2, UniProt P0DTD1); test: SARS-CoV-2 3C-Like (3CL) Protease Fluorescence Assay (FRET); assay type: biochemical; settings: test compounds 0-10 μM, duplicate
[3] = hCoV-229E in MRC-5 cells, MOI 0.05, 6 days at 34° C., ATPlite, run in duplicate
[4] = IC50, SARS-CoV-2 3CL-protease 10 nM
[5] = SARS-CoV-2 3CL-protease 10 nM, read-out: IC50

CC(C)OC(=O)N[C@H](C(=O)N(C)[C@@H](Cc1ccccc1)C(=O)N1C[C@]2(C[C@H]1C#N)C(=O)Nc1ccccc12)C(C)(C)C [Example 31]
EC50 [1, 3]: < 100 nM

CC(C)(C)C(NC(=O)OCc1ccccc1)C(=O)N1CCC[C@H]1C(=O)N1C[C@]2(C[C@H]1C#N)C(=O)Nc1ccccc12 (some centres unmarked) [Example 55]
IC50 [2, 4]: 100 to 1000 nM | EC50 [1]: > 1000 nM

CC(C)[C@@H](NC(=O)OCc1ccccc1)C(=O)N[C@@H](CC(C)(C)C)C(=O)N1C[C@]2(C[C@H]1C#N)C(=O)Nc1ccccc12 [Example 87]
EC50 [1]: > 1000 nM

CC(C)[C@H](NS(=O)(=O)c1ccc(F)cc1)C(=O)N(C)[C@@H](CC(C)(C)C)C(=O)N1C[C@]2(C[C@H]1C#N)C(=O)Nc1ccccc12 [Example 111]
IC50 [2, 4]: < 100 nM | EC50 [1]: 100 to 1000 nM

C[C@H](NC(=O)C(F)(F)C(F)(F)F)C(=O)N(C)[C@@H](CC(C)(C)C)C(=O)N1C[C@]2(C[C@H]1C#N)C(=O)Nc1ccccc12 [Example 133]
IC50 [2, 4]: < 100 nM | EC50 [1, 3]: < 100 nM

CC(C)C[C@@H](C(=O)N1C[C@]2(C[C@H]1C#N)C(=O)Nc1ccccc12)N(C)C(=O)[C@H](C)NC(=O)C(F)(F)F [Example 135]
EC50 [1, 3]: < 100 nM

CC(C)C[C@@H](C(=O)N1C[C@]2(C[C@H]1C#N)C(=O)Nc1ccccc12)N(C)C(=O)[C@H](C)NC(=O)C(F)(F)C(F)(F)F [Example 136]
IC50 [2, 5]: < 100 nM | EC50 [1, 3]: < 100 nM

CC(C)C[C@@H](C(=O)N1C[C@]2(C[C@H]1C#N)C(=O)Nc1ccccc12)N(C)C(=O)[C@H](C)NC(=O)C(F)(F)C(F)(F)C(F)(F)F [Example 137]
IC50 [2, 4]: < 100 nM | EC50 [1]: < 100 nM

[2H]C([2H])([2H])N(C(=O)[C@H](CC1CC1)NC(=O)c1ccc(F)cc1)[C@@H](CC1CC1)C(=O)N1C[C@]2(C[C@H]1C#N)C(=O)Nc1ccccc12 [Example 140]
IC50 [2, 5]: < 100 nM | EC50 [1, 3]: < 100 nM

CC(C)(C)C[C@H](NC(=O)[C@H](CC1CC1)NC(=O)c1cn(C2CC2)nn1)C(=O)N1C[C@]2(C[C@H]1C#N)C(=O)Nc1ccccc12 [Example 324]
IC50 [2, 5]: < 100 nM

CC(C)(C)C[C@H](NC(=O)[C@H](CC1CC1)NC(=O)c1c[nH]cn1)C(=O)N1C[C@]2(C[C@H]1C#N)C(=O)Nc1ccccc12 [Example 325]
IC50 [2, 5]: 100 to 1000 nM

CC(C)(C)C[C@H](NC(=O)[C@H](CC1CC1)NC(=O)c1ccc(F)c(F)c1)C(=O)N1C[C@]2(C[C@H]1C#N)C(=O)Nc1ccccc12 [Example 326]
IC50 [2, 5]: < 100 nM

CC(C)(C)C[C@H](NC(=O)[C@H](CC1CC1)NC(=O)C1CCCCC1)C(=O)N1C[C@]2(C[C@H]1C#N)C(=O)Nc1ccccc12 [Example 327]
IC50 [2, 5]: < 100 nM

CC(C)(C)C[C@H](NC(=O)[C@H](CC1CC1)NC(=O)OC1CC1)C(=O)N1C[C@]2(C[C@H]1C#N)C(=O)Nc1ccccc12 [Example 331]
IC50 [2, 5]: 100 to 1000 nM

C[C@H](Nc1ccc(F)cc1)C(=O)N[C@@H](CC(C)(C)C)C(=O)N1C[C@]2(C[C@H]1C#N)C(=O)Nc1ccccc12 [Example 336]
IC50 [2, 5]: 100 to 1000 nM

CC(C)[C@H](Nc1ccc(F)cc1)C(=O)N[C@@H](CC(C)(C)C)C(=O)N1C[C@]2(C[C@H]1C#N)C(=O)Nc1ccccc12 [Example 337]
IC50 [2, 5]: 100 to 1000 nM

CC(C)(C)C[C@H](NC(=O)[C@@H](Nc1ccc(F)cc1)C1CC1)C(=O)N1C[C@]2(C[C@H]1C#N)C(=O)Nc1ccccc12 [Example 338]
IC50 [2, 5]: < 100 nM

CC(C)(C)C[C@H](NC(=O)[C@H](Cc1ccccc1)Nc1ccc(F)cc1)C(=O)N1C[C@]2(C[C@H]1C#N)C(=O)Nc1ccccc12 [Example 339]
IC50 [2, 5]: < 100 nM

CC(C)(C)C[C@H](NC(=O)[C@@H](Nc1ccccc1)C1CC1)C(=O)N1C[C@]2(C[C@H]1C#N)C(=O)Nc1ccccc12 [Example 340]
IC50 [2, 5]: < 100 nM

CC(C)(C)C[C@H](NC(=O)[C@@H](Nc1ccc(F)cc1F)C1CC1)C(=O)N1C[C@]2(C[C@H]1C#N)C(=O)Nc1ccccc12 [Example 341]
IC50 [2, 5]: < 100 nM

CC(C)(C)C[C@H](NC(=O)[C@@H](Nc1ccc2ccccc2c1)C1CC1)C(=O)N1C[C@]2(C[C@H]1C#N)C(=O)Nc1ccccc12 [Example 342]
IC50 [2, 5]: < 100 nM

CC(C)(C)C[C@H](NC(=O)[C@@H](Nc1cnc2ccccc2c1)C1CC1)C(=O)N1C[C@]2(C[C@H]1C#N)C(=O)Nc1ccccc12 [Example 343]
IC50 [2, 5]: < 100 nM

CC(C)C(NC(=O)C(F)(F)F)C(=O)N1CC[C@H](c2ccccc2)[C@H]1C(=O)N1C[C@]2(C[C@H]1C#N)C(=O)Nc1ccccc12 (some centres unmarked) [Example 344]
IC50 [2, 5]: < 100 nM

CC(C)CC(NC(=O)C(F)(F)F)C(=O)N1CC[C@H](c2ccccc2)[C@H]1C(=O)N1C[C@]2(C[C@H]1C#N)C(=O)Nc1ccccc12 (some centres unmarked) [Example 345]
IC50 [2, 5]: < 100 nM

CC(C)CC(NC(=O)c1cnn(CC(F)(F)F)c1)C(=O)N1CC[C@H](c2ccccc2)[C@H]1C(=O)N1C[C@]2(C[C@H]1C#N)C(=O)Nc1ccccc12 (some centres unmarked) [Example 346]
IC50 [2, 5]: < 100 nM

CN(C(=O)[C@H](CC1CC1)NC(=O)C(F)(F)C(F)(F)F)[C@@H](CC1CC1)C(=O)N1C[C@]2(C[C@H]1C#N)C(=O)Nc1ccccc12 [Example 347]
IC50 [2, 5]: < 100 nM

C[C@H](NC(=O)C(F)(F)C(F)(F)F)C(=O)N(C)[C@@H](CC(C)(C)C)C(=O)N1C[C@]2(C[C@H]1C#N)C(=O)N(C)c1ccccc12 [Example 348]
IC50 [2, 5]: < 100 nM

CC(C)OC(=O)OCN1C(=O)[C@]2(C[C@@H](C#N)N(C(=O)[C@H](CC3CC3)N(C)C(=O)[C@H](C)NC(=O)C(F)(F)C(F)(F)F)C2)c2ccccc21 [Example 350]
IC50 [2, 5]: 100 to 1000 nM

C[C@H](NC(=O)C(F)(F)C(F)(F)F)C(=O)N(C)[C@@H](CC1CC1)C(=O)N1C[C@]2(C[C@H]1C#N)C(=O)N(COP(=O)(OC(C)(C)C)OC(C)(C)C)c1ccccc12 [Example 351]
IC50 [2, 4]: < 100 nM

C[C@H](NC(=O)C(F)(F)C(F)(F)F)C(=O)N(C)[C@@H](CC1CC1)C(=O)N1C[C@]2(C[C@H]1C#N)C(=O)N(COP(=O)(O)O)c1ccccc12 [Example 352]
IC50 [2, 5]: < 100 nM

CC(C)C[C@@H](C(=O)N1C[C@]2(C[C@H]1C#N)C(=O)Nc1ccccc12)n1cccc(NS(=O)(=O)C2CC2)c1=O [Example 353]
IC50 [2, 5]: < 100 nM

CC(C)C[C@@H](C(=O)N1C[C@]2(C[C@H]1C#N)C(=O)Nc1ccccc12)n1cccc(NC(=O)OC(C)(C)C)c1=O [Example 354]
IC50 [2, 5]: 100 to 1000 nM

CC(C)C[C@@H](C(=O)N1C[C@]2(C[C@H]1C#N)C(=O)Nc1ccccc12)n1cccc(NC(=O)C2CC2)c1=O [Example 357]
IC50 [2, 5]: < 100 nM

CC(=O)Nc1cccn([C@H](CC(C)C)C(=O)N2C[C@]3(C[C@H]2C#N)C(=O)Nc2ccccc23)c1=O [Example 358]
IC50 [2, 5]: < 100 nM

CC(C)C[C@H](C(=O)N1C[C@]2(C[C@H]1C#N)C(=O)Nc1ccccc12)n1cccc(NS(=O)(=O)C2CC2)c1=O [Example 359]
IC50 [2, 5]: 100 to 1000 nM

CC(C)C[C@H](C(=O)N1C[C@]2(C[C@H]1C#N)C(=O)Nc1ccccc12)n1cccc(NC(=O)OC(C)(C)C)c1=O [Example 360]
IC50 [2, 5]: < 100 nM

CCN(C(=O)[C@H](C)NC(=O)c1ccc(OC(F)(F)F)cc1)[C@@H](CC(C)C)C(=O)N1C[C@]2(C[C@H]1C#N)C(=O)Nc1ccccc12 [Example 361]
IC50 [2, 5]: < 100 nM

CCN(C(=O)[C@H](C)NC(=O)c1c(F)cc(F)cc1F)[C@@H](CC(C)C)C(=O)N1C[C@]2(C[C@H]1C#N)C(=O)Nc1ccccc12 [Example 362]
IC50 [2, 5]: < 100 nM

CCN(C(=O)[C@H](C)NC(=O)c1ccc(C(C)(C)C)cc1)[C@@H](CC(C)C)C(=O)N1C[C@]2(C[C@H]1C#N)C(=O)Nc1ccccc12 [Example 363]
IC50 [2, 5]: < 100 nM

CCN(C(=O)[C@H](C)NC(=O)c1ccc(Cl)c(Cl)c1)[C@@H](CC(C)C)C(=O)N1C[C@]2(C[C@H]1C#N)C(=O)Nc1ccccc12 [Example 364]
IC50 [2, 5]: < 100 nM

CCN(C(=O)[C@H](C)NC(=O)C(F)(F)F)[C@@H](CC(C)C)C(=O)N1C[C@]2(C[C@H]1C#N)C(=O)Nc1ccccc12 [Example 365]
IC50 [2, 5]: < 100 nM

CCN(C(=O)[C@H](C)NC(=O)C(F)(F)C(F)(F)F)[C@@H](CC(C)C)C(=O)N1C[C@]2(C[C@H]1C#N)C(=O)Nc1ccccc12 [Example 366]
IC50 [2, 5]: < 100 nM

CCN(C(=O)C(C)NC(=O)C12CC(C)(C1)C2)C(CC(C)C)C(=O)N1CC2(CC1C#N)C(=O)Nc1ccccc12 (centres unmarked) [Example 367]
IC50 [2, 5]: < 100 nM

CCN(C(=O)[C@H](C)NC(=O)C12CC3CC(CC(C3)C1)C2)[C@@H](CC(C)C)C(=O)N1C[C@]2(C[C@H]1C#N)C(=O)Nc1ccccc12 [Example 368]
IC50 [2, 5]: < 100 nM

CCCC(F)(F)C(=O)N[C@@H](C)C(=O)N(CC)[C@@H](CC(C)C)C(=O)N1C[C@]2(C[C@H]1C#N)C(=O)Nc1ccccc12 [Example 369]
IC50 [2, 5]: < 100 nM

CCN(C(=O)[C@H](C)NC(=O)N1CCCCC1)[C@@H](CC(C)C)C(=O)N1C[C@]2(C[C@H]1C#N)C(=O)Nc1ccccc12 [Example 370]
IC50 [2, 5]: < 100 nM

CCN(C(=O)[C@H](C)NC(=O)OC(C)C)[C@@H](CC(C)C)C(=O)N1C[C@]2(C[C@H]1C#N)C(=O)Nc1ccccc12 [Example 371]
IC50 [2, 5]: < 100 nM

CCN(C(=O)[C@H](C)NC(=O)c1ccc(F)cc1)[C@@H](CC(C)C)C(=O)N1C[C@]2(C[C@H]1C#N)C(=O)Nc1ccccc12 [Example 372]
IC50 [2, 5]: < 100 nM

C[C@@H]1NC(=O)CCCCCc2ccc3c(c2)[C@@]2(C[C@@H](C#N)N(C2)C(=O)[C@H](CC(C)(C)C)NC1=O)C(=O)N3 [Example 375]
IC50 [2, 5]: > 1000 nM

C[C@@H]1NC(=O)CCCCCCCc2ccc3c(c2)[C@@]2(C[C@@H](C#N)N(C2)C(=O)[C@H](CC(C)(C)C)NC1=O)C(=O)N3 [Example 376]
IC50 [2, 5]: > 1000 nM

C[C@@H]1NC(=O)CCCCc2ccc3c(c2)[C@@]2(C[C@@H](C#N)N(C2)C(=O)[C@H](CC(C)(C)C)N(C)C1=O)C(=O)N3 [Example 377]
IC50 [2, 5]: < 100 nM

C[C@@H]1NC(=O)CCCc2ccc3c(c2)[C@@]2(C[C@@H](C#N)N(C2)C(=O)[C@H](CC(C)(C)C)N(C)C1=O)C(=O)N3 [Example 378]
IC50 [2, 5]: < 100 nM

C[C@@H]1NC(=O)CCCCCCc2ccc3c(c2)[C@@]2(C[C@@H](C#N)N(C2)C(=O)[C@H](CC(C)(C)C)NC1=O)C(=O)N3 [Example 379]
IC50 [2, 5]: > 1000 nM
